# Measurements taken from patent publication US20110021530A1, “PYRIDAZINE DERIVATIVES AND THEIR USE AS THERAPEUTIC AGENTS IN THE TREATMENT OF SKIN DISORDERS” (XENON PHARMACEUTICALS INC., priority 2008, published 2011).
# pIC50: −log10 of the molar value.
# What was measured:
# [1] = target: T1, stearoyl-CoA desaturase (SCD) (Mus musculus, UniProt P13516); assay: HTS microsomal assay of stearoyl-CoA desaturase inhibition using mouse liver microsomes; format: biochemical; conditions: % SCD enzyme activity remaining at 10 μM test compound
# T1 construct: Reactions are started by adding 2 mg of microsomal protein; from tissue; host or cells: liver microsomes of male ICR mice on a high-carbohydrate, low fat diet
# T1 sequence (P13516 1-355): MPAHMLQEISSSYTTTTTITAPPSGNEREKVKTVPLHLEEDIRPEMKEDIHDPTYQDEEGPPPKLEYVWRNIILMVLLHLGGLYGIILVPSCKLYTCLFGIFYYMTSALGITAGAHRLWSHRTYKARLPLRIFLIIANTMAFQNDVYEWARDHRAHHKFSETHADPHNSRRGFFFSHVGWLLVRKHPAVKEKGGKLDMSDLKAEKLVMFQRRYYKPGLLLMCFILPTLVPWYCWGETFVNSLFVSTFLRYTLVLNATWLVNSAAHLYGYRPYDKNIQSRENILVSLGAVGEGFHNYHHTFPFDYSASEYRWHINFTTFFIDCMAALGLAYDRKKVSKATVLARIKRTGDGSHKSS
# Description: The absence of mitochondrial contamination is enzymatically assessed.
# The compounds are analyzed with an HTS microsomal assay.
# SCD = target: T2, SCD (Mus musculus, UniProt P13516); assay: Mouse SCD IC50 determination for compounds active in the HTS assay; format: biochemical
# T2 sequence (P13516 1-355): T1 sequence (P13516 1-355)
# Description: The compounds are analyzed with an HTS microsomal assay. The activities are defined in terms of % SCD enzyme activity remaining at the selected concentration (e.g., 10 μM) of the test compounds.
# HEPG2 = HEPG2 IC50; format: cell-based; conditions: Homo sapiens
Structure (SMILES),melting point,Mouse microsome SCD activity % remaining @ 10 μM [1],pIC50 (SCD),pIC50 (HEPG2)
"O=C(NCc1ccccn1)c1ccc(N2CCN(C(=O)c3ccccc3C(F)(F)F)CC2)nn1 [Example 30, 6-[4-(2-TRIFLUOROMETHYLBENZOYL)PIPERAZIN-1-YL]PYRIDAZINE-3-CARBOXYLIC ACID (PYRIDIN-2-YL-METHYL)AMIDE]",179 to 181 °C,–,–,–
"CC(C)(C)C(O)CNC(=O)c1ccc(N2CCN(C(=O)c3ccccc3C(F)(F)F)CC2)nn1 (stereo not shown) [Example 15.29, 6-[4-(2-TRIFLUOROMETHYLBENZOYL)PIPERAZIN-1-YL]PYRIDAZINE-3-CARBOXYLIC ACID (2-HYDROXY-3,3-DIMETHYLBUTYL)AMIDE]",236 to 240 °C,–,–,–
O=C(NCCC1CC1)c1ccc(N2CCN(C(=O)c3ccoc3C(F)(F)F)CC2)nn1 [6-[4-(2-TRIFLUOROMETHYLFURAN-3-CARBONYL)PIPERAZIN-1-YL]PYRIDAZINE-3-CARBOXYLIC ACID (2-CYCLOPROPYLETHYL)AMIDE],–,7%,6.59,6.54
O=C(NCCC1CC1)c1ccc(N2CCN(Cc3ccccc3C(F)(F)F)CC2)nn1 [6-[4-(2-TRIFLUOROMETHYLBENZYL)PIPERAZIN-1-YL]PYRIDAZINE-3-CARBOXYLIC ACID (2-CYCLOPROPYLETHYL)AMIDE],106 to 108 °C,12%,7.05,7.40
"O=C(NCC(O)c1cccc(F)c1)c1ccc(N2CCN(C(=O)c3ccccc3C(F)(F)F)CC2)nn1 (stereo not shown) [Example 27.4, 6-[4-(2-TRIFLUOROMETHYLBENZOYL)PIPERAZIN-1-YL]PYRIDAZINE-3-CARBOXYLIC ACID [2-(3-FLUOROPHENYL)-2-HYDROXYETHYL]AMIDE]",117 to 119 °C,–,–,–
"O=C(NCCC1CC1)c1ccc(N2CCN(C(=S)c3ccccc3C(F)(F)F)CC2)nn1 [Example 31, 6-[4-(2-TRIFLUOROMETHYLTHIOBENZOYL)PIPERAZIN-1-YL]-PYRIDAZINE-3-CARBOXYLIC ACID (2-CYCLOPROPYLETHYL)AMIDE]",117 to 120 °C,–,–,–
"O=C(NCCc1ccc2c(c1)OCO2)c1ccc(N2CCN(C(=O)c3ccccc3C(F)(F)F)CC2)nn1 [Example 30.1, 6-[4-(2-TRIFLUOROMETHYLBENZOYL)PIPERAZIN-1-YL]PYRIDAZINE-3-CARBOXYLIC ACID (2-BENZO[1,3]DIOXOL-5-YL-ETHYL)AMIDE]",162 to 164 °C,–,–,–
CCCCCNC(=O)Nc1ccc(N2CCN(C(=O)c3ccccc3C(F)(F)F)CC2)nn1 [1-PENTYL-3-{6-[4-(2-TRIFLUOROMETHYLBENZOYL)PIPERAZIN-1-YL]PYRIDAZIN-3-YL}UREA],–,6%,8.00,7.40
CC(C)CCNC(=O)c1ccc(N2CCN(C(=O)c3cnn(C)c3C(F)(F)F)CC2)nn1 [6-[4-(1-METHYL-5-TRIFLUOROMETHYL-1H-PYRAZOLE-4-CARBONYL)PIPERAZIN-1-YL]-PYRIDAZINE-3-CARBOXYLIC ACID (3-METHYLBUTYL)AMIDE],–,15%,6.46,6.36
"CC(C)CCCNC(=O)c1ccc(N2CCN(C(=O)c3ccccc3C(F)(F)F)CC2)nn1 [Example 15.33, 6-[4-(2-TRIFLUOROMETHYLBENZOYL)PIPERAZIN-1-YL]PYRIDAZINE-3-CARBOXYLIC ACID (4-METHYLPENTYL)AMIDE]",43 to 45 °C,–,–,–
"O=C(NCCC1CC1)c1ccc(N2CCN(Cc3cc(Cl)ccc3Cl)CC2)nn1 [6-[4-(2,5-DICHLOROBENZYL)PIPERAZIN-1-YL]PYRIDAZINE-3-CARBOXYLIC ACID (2-CYCLOPROPYLETHYL)AMIDE]",–,8%,6.74,7.22
CC(C)CCNC(=O)c1ccc(N2CCN(C(=O)c3ccccc3[N+](=O)[O-])CC2)nn1 [6-[4-(2-NITROBENZOYL)PIPERAZIN-1-YL]PYRIDAZINE-3-CARBOXYLIC ACID (3-METHYLBUTYL)AMIDE],–,8%,7.10,6.92
O=C(NCc1ccccc1)Nc1ccc(N2CCN(C(=O)c3ccccc3C(F)(F)F)CC2)nn1 [1-BENZYL-3-{6-[4-(2-TRIFLUOROMETHYLBENZOYL)PIPERAZIN-1-YL]PYRIDAZIN-3-YL}UREA],–,8%,7.40,7.30
O=C(NCC1CC1)c1ccc(N2CCN(C(=O)c3ccccc3C(F)(F)F)CC2)nn1 [6-[4-(2-TRIFLUOROMETHYLBENZOYL)PIPERAZIN-1-YL]PYRIDAZINE-3-CARBOXYLIC ACID CYCLOPROPYLMETHYLAMIDE],–,49%,5.06,5.26
CC(C)CCNC(=O)c1ccc(N2CCN(C(=O)c3ccccc3N)CC2)nn1 [6-[4-(2-AMINOBENZOYL)PIPERAZIN-1-YL]PYRIDAZINE-3-CARBOXYLIC ACID (3-METHYLBUTYL)AMIDE],–,23%,6.35,6.19
"O=C(NCCc1ccc(F)cc1F)c1ccc(N2CCN(C(=O)c3ccccc3C(F)(F)F)CC2)nn1 [6-[4-(2-TRIFLUOROMETHYLBENZOYL)PIPERAZIN-1-YL]PYRIDAZINE-3-CARBOXYLIC ACID [2-(2,4-DIFLUOROPHENYL)ETHYL]AMIDE]",179 to 181 °C,5%,7.70,7.70
O=C(NCc1ccc(F)cc1)Nc1ccc(N2CCN(C(=O)c3ccccc3C(F)(F)F)CC2)nn1 [1-(4-FLUOROBENZYL)-3-{6-[4-(2-TRIFLUOROMETHYLBENZOYL)PIPERAZIN-1-YL]-PYRIDAZIN-3-YL}UREA],–,6%,7.15,7.52
"CC(C)CCNC(=O)c1ccc(N2CCN(C(=O)c3cc(Cl)ccc3C(F)(F)F)CC2)nn1 [Example 3.7, 6-[4-(5-CHLORO-2-TRIFLUOROMETHYLBENZOYL)PIPERAZIN-1-YL]PYRIDAZINE-3-CARBOXYLIC ACID (3-METHYLBUTYL)AMIDE]",148 to 151 °C,–,–,–
O=C(NCCCC1CC1)c1ccc(N2CCN(Cc3cc(F)ccc3C(F)(F)F)CC2)nn1 [6-[4-(5-FLUORO-2-TRIFLUOROMETHYLBENZYL)PIPERAZIN-1-YL]PYRIDAZINE-3-CARBOXYLIC ACID (3-CYCLOPROPYLPROPYL)AMIDE],–,8%,6.74,7.22
"CC(C)(C)C(O)CNC(=O)c1ccc(N2CCN(C(=O)c3cc(F)ccc3C(F)(F)F)CC2)nn1 (stereo not shown) [Example 15.30, 6-[4-(5-FLUORO-2-TRIFLUOROMETHYLBENZOYL)PIPERAZIN-1-YL]PYRIDAZINE-3-CARBOXYLIC ACID (2-HYDROXY-3,3-DIMETHYLBUTYL)AMIDE]",186 to 189 °C,–,–,–
"CC(C(=O)N1CCN(c2ccc(C(=O)NCCC3CC3)nn2)CC1)(C(F)(F)F)C(F)(F)F [6-[4-(3,3,3-TRIFLUORO-2-METHYL-2-TRIFLUOROMETHYLPROPIONYL)PIPERAZIN-1-YL]PYRIDAZINE-3-CARBOXYLIC ACID (2-CYCLOPROPYLETHYL)AMIDE]",–,8%,6.96,6.92
COc1ccc(CCNC(=O)c2ccc(N3CCN(C(=O)c4ccccc4C(F)(F)F)CC3)nn2)cc1 [6-[4-(2-TRIFLUOROMETHYLBENZOYL)PIPERAZIN-1-YL]PYRIDAZINE-3-CARBOXYLIC ACID [2-(4-METOXYPHENYL)ETHYL]AMIDE],–,7%,5.79,7.10
"O=C(NCCC1CC1)c1ccc(N2CCN(Cc3ccc(Cl)cc3Cl)CC2)nn1 [6-[4-(2,4-DICHLOROBENZYL)-PIPERAZIN-1-YL]PYRIDAZINE-3-CARBOXYLIC ACID (2-CYCLOPROPYLETHYL)AMIDE]",–,8%,6.64,6.68
O=C(NCCC1CC1)c1ccc(N2CCN(Cc3ccc(F)cc3C(F)(F)F)CC2)nn1 [6-[4-(4-FLUORO-2-TRIFLUOROMETHYLBENZYL)-PIPERAZIN-1-YL]PYRIDAZINE-3-CARBOXYLIC ACID (2-CYCLOPROPYLETHYL)AMIDE],–,12%,7.70,8.00
O=C(NCCc1ccccc1)Nc1ccc(N2CCN(C(=O)c3ccccc3C(F)(F)F)CC2)nn1,–,15%,7.22,6.64
"O=C(NCCc1ccccn1)c1ccc(N2CCN(C(=O)c3ccccc3C(F)(F)F)CC2)nn1 [Example 28.2, 6-[4-(2-TRIFLUOROMETHYLBENZOYL)PIPERAZIN-1-YL]PYRIDAZINE-3-CARBOXYLIC ACID (2-PYRIDIN-2-YLETHYL)AMIDE]",151 to 154 °C,–,–,–
O=C(NCCC1CC1)Nc1ccc(N2CCN(C(=O)c3ccccc3C(F)(F)F)CC2)nn1,> 300 °C,–,–,–
"O=C(NCCC1CC1)c1ccc(N2CCN(C(=O)CC(O)(C(F)(F)F)C(F)(F)F)CC2)nn1 [6-[4-(4,4,4-TRIFLUORO-3-HYDROXY-3-TRIFLUOROMETHYLBUTYRYL)PIPERAZIN-1-YL]PYRIDAZINE-3-CARBOXYLIC ACID (2-CYCLOPROPYLETHYL)AMIDE]",–,8%,6.32,6.92
"CC(O)(C(=O)N1CCN(c2ccc(C(=O)NCCC3CC3)nn2)CC1)C(F)(F)F (stereo not shown) [Example 14.8, 6-[4-(3,3,3-TRIFLUORO-2-HYDROXY-2-METHYLPROPIONYL)PIPERAZIN-1-YL]PYRIDAZINE-3-CARBOXYLIC ACID (2-CYCLOPROPYLETHYL)AMIDE]",181 to 183 °C,–,–,–
